From patent US20240308968A1, “FUNGICIDAL SUBSTITUTED HETEROCYCLES” (FMC Corporation, priority 2021, published 2024)

Columns and labels:
Format in all cases: in vivo
[1] = tested on: Blumeria graminis f. sp. Tritici; test: Test C: preventive spray on wheat seedlings, wheat powdery mildew disease rating; conditions: 100 = 100% disease control, 0 = no control; for pest or weed control at 50 ppm: Blumeria graminis, 192 h
Excerpt: (§1) General protocol for preparing test suspensions for Tests A-F: the test compounds were first dissolved in acetone in an amount equal to 3% of the final volume and then suspended at the desired concentration (in ppm) in acetone and purified water (50/50 mix by volume) containing 50 to 250 ppm of the surfactant PEG400 (polyhydric alcohol esters). The resulting test suspensions were then used in Tests A-F.
The test suspension was sprayed to the point of run-off on wheat seedlings. The following day the seedlings were inoculated with a spore dust of Blumeria graminis f. sp. Tritici, (also known as Erysiphe graminis f. sp. Tritici, the causal agent of wheat powdery mildew) and incubated in a growth chamber at 20° C. for 8 days, after which time visual disease ratings were made.
(§2) The test suspension was sprayed to the point of run-off on tomato seedlings. The following day the seedlings were inoculated with a spore suspension of Alternaria solani (the causal agent of tomato early blight) and incubated in a saturated atmosphere at 27° C. for 48 h, and then moved to a growth chamber at 20° C. for 3 days, after which time visual disease ratings were made. A rating of 100 indicates 100% disease control and a rating of 0 indicates no disease control (relative to the controls). A dash (-) indicates the compound was not tested.

[2] = tested on: Puccinia recondita f. sp. Tritici; test: Test B: preventive spray on wheat seedlings, wheat leaf rust disease rating; conditions: 100 = 100% disease control, 0 = no control; for pest or weed control at 50 ppm: Puccinia recondita, 192 h
Excerpt: as §1
The test solution was sprayed to the point of run-off on wheat seedlings. The following day the seedlings were inoculated with a spore suspension of Puccinia recondita f. sp. Tritici (the causal agent of wheat leaf rust) and incubated in a saturated atmosphere at 20° C. for 24 h, and then moved to a growth chamber at 20° C. for 7 days, after which time disease ratings were made.
as §2

Zymoseptoria tritici = test: Test A: preventive spray on wheat seedlings, wheat leaf blotch disease rating; conditions: 100 = 100% disease control, 0 = no control; for pest or weed control at 50 ppm: Zymoseptoria tritici, 456 h
Excerpt: as §1
The test solution was sprayed to the point of run-off on wheat seedlings. The following day the seedlings were inoculated with a spore suspension of Zymoseptoria tritici (the causal agent of wheat leaf blotch) and incubated in a saturated atmosphere at 24° C. for 48 h, and then moved to a growth chamber at 20° C. for 17 days, after which time disease ratings were made. […]

Alternaria solani = test: Test F: preventive spray on tomato seedlings, tomato early blight disease rating; conditions: 100 = 100% disease control, 0 = no control; for pest or weed control at 50 ppm: Alternaria solani, 120 h
Excerpt: as §1, §2

Botrytis cinerea = test: Test E: preventive spray on tomato seedlings, tomato Botrytis disease rating; conditions: 100 = 100% disease control, 0 = no control; for pest or weed control at 50 ppm: Botrytis cinerea, 120 h
Excerpt: as §1
The test suspension was sprayed to the point of run-off on tomato seedlings. The following day the seedlings were inoculated with a spore suspension of Botrytis cinerea (the causal agent of tomato Botrytis) and incubated in a saturated atmosphere at 20° C. for 48 h, and then moved to a growth chamber at 24° C. for 3 days, after which time visual disease ratings were made.
as §2

Phakopsora pachyrhizi = test: Test D: preventive spray on soybean seedlings, Asian soybean rust disease rating; conditions: 100 = 100% disease control, 0 = no control; for pest or weed control at 50 ppm: Phakopsora pachyrhizi, 216 h
Excerpt: as §1
The test solution was sprayed to the point of run-off on soybean seedlings. The following day the seedlings were inoculated with a spore suspension of Phakopsora pachyrhizi (the causal agent of Asian soybean rust) and incubated in a saturated atmosphere at 22° C. for 24 h and then moved to a growth chamber at 22° C. for 8 days, after which time visual disease ratings were made.
as §2

SMILES | Test C disease control rating ([1]; 50 ppm) [%] | Test B disease control rating ([2]; 50 ppm) [%] | Test A disease control rating (Zymoseptoria tritici; 50 ppm) [%] | Test F disease control rating (Alternaria solani; 50 ppm) [%] | Test E disease control rating (Botrytis cinerea; 50 ppm) [%] | Test D disease control rating (Phakopsora pachyrhizi; 50 ppm) [%] | other results
Cn1nc(-c2ccsc2)c(-c2c(F)cccc2F)cc1=O [Compound 1] |  |  |  |  |  |  | Test C disease control rating ([1]; 250 ppm): 0%; Test B disease control rating ([2]; 250 ppm): 0%; Test A disease control rating (Zymoseptoria tritici; 250 ppm): 0%; Test F disease control rating (Alternaria solani; 250 ppm): 0%; Test E disease control rating (Botrytis cinerea; 250 ppm): 0%; Test D disease control rating (Phakopsora pachyrhizi; 250 ppm): 65%
Cn1nc(-c2cccnc2)c(-c2c(F)cccc2F)cc1=O [Compound 2] | 0 | 0 | 0 | 0 | 0 | 0 | 
Cn1nc(-c2ccoc2)c(-c2c(F)cccc2F)cc1=O [Compound 3] |  |  |  |  |  |  | Test C disease control rating ([1]; 250 ppm): 0%; Test B disease control rating ([2]; 250 ppm): 0%; Test A disease control rating (Zymoseptoria tritici; 250 ppm): 0%; Test F disease control rating (Alternaria solani; 250 ppm): 0%; Test E disease control rating (Botrytis cinerea; 250 ppm): 0%; Test D disease control rating (Phakopsora pachyrhizi; 250 ppm): 38%
Cc1ccncc1-c1nn(C)c(=O)c(Cl)c1-c1ccc(F)cc1Cl [Compound 4, 4-chloro-5-(2-chloro-4-fluorophenyl)-2-methyl-6-(4-methyl-3-pyridinyl)-3(2H)-pyridazinone] |  |  |  |  |  |  | pest or weed control at 50 ppm ([1]; 50 ppm): 89%; pest or weed control at 50 ppm ([2]; 50 ppm): 89%; pest or weed control at 50 ppm (Zymoseptoria tritici; 50 ppm): 100%; pest or weed control at 50 ppm (Alternaria solani; 50 ppm): 70%; pest or weed control at 50 ppm (Botrytis cinerea; 50 ppm): 65%; pest or weed control at 50 ppm (Phakopsora pachyrhizi; 50 ppm): 38%
Cc1c(-c2ccc(F)cc2Cl)c(-c2ccsc2)nn(C)c1=O [Compound 5] | 96 | 74 | 100 | 91 | 93 | 21 | 
Cc1c(-c2ccc(F)cc2Cl)c(-c2ccsc2Br)nn(C)c1=O [Compound 6] | 99 | 100 | 100 | 99 | 91 | 78 | 
Cc1c(-c2ccc(F)cc2Cl)c(-c2ccsc2Cl)nn(C)c1=O [Compound 7, 5-(2-chloro-4-fluorophenyl)-6-(2-chloro-3-thienyl)-2,4-dimethyl-3(2H)-pyridazinone] |  |  |  |  |  |  | pest or weed control at 50 ppm ([1]; 50 ppm): 99%; pest or weed control at 50 ppm ([2]; 50 ppm): 100%; pest or weed control at 50 ppm (Zymoseptoria tritici; 50 ppm): 99%; pest or weed control at 50 ppm (Alternaria solani; 50 ppm): 99%; pest or weed control at 50 ppm (Botrytis cinerea; 50 ppm): 97%; pest or weed control at 50 ppm (Phakopsora pachyrhizi; 50 ppm): 100%
Cc1sccc1-c1nn(C)c(=O)c(C)c1-c1ccc(F)cc1Cl [Compound 8] | 99 | 100 | 99 | 99 | 94 | 96 | 
Cc1c(-c2ccc(F)cc2Cl)c(-c2cccs2)nn(C)c1=O [Compound 9] | 95 | 79 | 100 | 16 | 98 | 8 | 
Cc1c(-c2ccc(F)cc2Cl)c(-c2ccc(Cl)s2)nn(C)c1=O [Compound 10] | 96 | 68 | 100 | 16 | 96 | 12 | 
Cc1cnn(-c2nn(C)c(=O)c(C)c2-c2ccc(F)cc2Cl)c1 [Compound 11] | 97 | 0 | 70 | 24 | 91 | 0 | 
Cc1cnn(-c2nn(C)c(=O)c(C)c2-c2ccccc2Cl)c1 [Compound 12] | 0 | 0 | 0 | 15 | 0 | 17 | 
Cc1c(-c2ccc(F)cc2Cl)c(-c2cc(Br)sc2Br)nn(C)c1=O [Compound 13] | 73 | 80 | 99 | 0 | 90 | 0 | 
Cc1cscc1-c1nn(C)c(=O)c(C)c1-c1ccc(F)cc1Cl [Compound 14] | 97 | 99 | 100 | 94 | 96 | 72 | 
Cc1c(-c2nn(C)c(=O)c(C)c2-c2ccc(F)cc2Cl)csc1Br [Compound 15] | 99 | 100 | 100 | 99 | 92 | 24 | 
Cc1c(-c2ccc(F)cc2Cl)c(-c2sc(Br)cc2Br)nn(C)c1=O [Compound 16] | 64 | 68 | 99 | 0 | 37 | 0 | 
Cc1c(-c2ccc(F)cc2Cl)c(-c2ccc(Br)s2)nn(C)c1=O [Compound 17] | 56 | 68 | 99 | 0 | 39 | 12 | 
COc1ccc(Cl)c(-c2nn(C)c(=O)c(C)c2-c2ccsc2C)c1 [Compound 18] | 93 | 92 | 96 | 0 | 97 | 13 | 
COc1cc(-c2cc(C#N)c(=O)n(C)c2-c2ccc(F)cc2Cl)ccc1Cl [Compound 160] |  |  |  |  |  |  | Test C disease control rating ([1]; 250 ppm): 0%; Test B disease control rating ([2]; 250 ppm): 80%; Test A disease control rating (Zymoseptoria tritici; 250 ppm): 46%; Test E disease control rating (Botrytis cinerea; 250 ppm): 94%; Test D disease control rating (Phakopsora pachyrhizi; 250 ppm): 0%
